Test results published in patent US20240269139A1, “COMPOUNDS FOR TARGETED PROTEIN DEGRADATION OF KINASES” (DANA-FARBER CANCER INSTITUTE, INC., priority 2020, published 2024).
Several values for one entry are separate records, joined by “and”; a condition that tells them apart may be missing. Equal entries are not always repeated. Where two headings read alike, the source gives them in different places.

Legend:
Assay type in all cases: cell-based
[1] = target: protein kinases (human kinome) (Homo sapiens, UniProt Q07912); conditions: for logFC TNK2 (Q07912-1): direction down; for logFC TNK2: TNK2 (Q07912-1)
protein kinases (human kinome) (Homo sapiens, UniProt Q07912), sequence (Q07912 whole entry): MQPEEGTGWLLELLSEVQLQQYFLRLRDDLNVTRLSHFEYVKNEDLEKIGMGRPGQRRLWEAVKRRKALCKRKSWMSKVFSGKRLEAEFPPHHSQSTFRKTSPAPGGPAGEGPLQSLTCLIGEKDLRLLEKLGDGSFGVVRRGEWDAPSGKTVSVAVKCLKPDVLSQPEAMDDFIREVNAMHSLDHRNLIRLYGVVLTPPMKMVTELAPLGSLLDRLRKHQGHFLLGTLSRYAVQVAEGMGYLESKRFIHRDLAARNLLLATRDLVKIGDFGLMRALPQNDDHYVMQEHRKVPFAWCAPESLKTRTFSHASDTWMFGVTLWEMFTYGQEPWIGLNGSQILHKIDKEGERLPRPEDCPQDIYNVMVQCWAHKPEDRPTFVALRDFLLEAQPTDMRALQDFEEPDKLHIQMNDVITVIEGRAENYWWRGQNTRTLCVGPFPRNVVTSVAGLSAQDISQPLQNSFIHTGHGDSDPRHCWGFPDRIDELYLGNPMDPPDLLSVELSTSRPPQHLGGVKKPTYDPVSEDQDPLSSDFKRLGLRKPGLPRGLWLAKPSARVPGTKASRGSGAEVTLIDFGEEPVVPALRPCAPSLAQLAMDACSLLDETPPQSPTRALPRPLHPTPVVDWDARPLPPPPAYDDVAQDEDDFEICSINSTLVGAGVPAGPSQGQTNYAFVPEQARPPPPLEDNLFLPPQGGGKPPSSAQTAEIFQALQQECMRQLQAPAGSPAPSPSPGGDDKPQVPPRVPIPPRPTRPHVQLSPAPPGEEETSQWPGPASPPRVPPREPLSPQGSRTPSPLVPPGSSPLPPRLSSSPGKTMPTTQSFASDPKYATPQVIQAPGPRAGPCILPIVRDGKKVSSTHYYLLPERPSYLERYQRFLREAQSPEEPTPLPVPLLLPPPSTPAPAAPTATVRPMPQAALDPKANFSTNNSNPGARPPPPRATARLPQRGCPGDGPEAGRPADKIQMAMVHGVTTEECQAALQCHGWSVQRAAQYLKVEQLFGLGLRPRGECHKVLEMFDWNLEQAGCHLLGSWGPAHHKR

[2] = target: protein kinases (human kinome) (Homo sapiens, UniProt Q16539); conditions: for logFC MAPK14: MAPK14, accession Q16539, direction of change down; for logFC of MAPK14: Accession Q16539
protein kinases (human kinome) (Homo sapiens, UniProt Q16539), sequence (Q16539 whole entry): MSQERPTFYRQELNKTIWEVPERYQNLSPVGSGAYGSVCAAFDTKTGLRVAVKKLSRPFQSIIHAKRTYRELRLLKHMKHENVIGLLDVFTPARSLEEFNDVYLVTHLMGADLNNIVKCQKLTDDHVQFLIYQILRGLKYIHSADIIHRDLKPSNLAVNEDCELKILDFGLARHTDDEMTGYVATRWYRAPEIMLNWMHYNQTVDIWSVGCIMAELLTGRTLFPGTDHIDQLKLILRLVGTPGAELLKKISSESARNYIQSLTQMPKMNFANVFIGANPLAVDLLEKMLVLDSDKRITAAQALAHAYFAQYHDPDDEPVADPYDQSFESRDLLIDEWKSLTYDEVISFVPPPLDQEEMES

[3] = target: protein kinases (human kinome) (Homo sapiens, UniProt P42684); conditions: for logFC: ABL2 (P42684) protein abundance, degrader vs DMSO, down
protein kinases (human kinome) (Homo sapiens, UniProt P42684), sequence (P42684 whole entry): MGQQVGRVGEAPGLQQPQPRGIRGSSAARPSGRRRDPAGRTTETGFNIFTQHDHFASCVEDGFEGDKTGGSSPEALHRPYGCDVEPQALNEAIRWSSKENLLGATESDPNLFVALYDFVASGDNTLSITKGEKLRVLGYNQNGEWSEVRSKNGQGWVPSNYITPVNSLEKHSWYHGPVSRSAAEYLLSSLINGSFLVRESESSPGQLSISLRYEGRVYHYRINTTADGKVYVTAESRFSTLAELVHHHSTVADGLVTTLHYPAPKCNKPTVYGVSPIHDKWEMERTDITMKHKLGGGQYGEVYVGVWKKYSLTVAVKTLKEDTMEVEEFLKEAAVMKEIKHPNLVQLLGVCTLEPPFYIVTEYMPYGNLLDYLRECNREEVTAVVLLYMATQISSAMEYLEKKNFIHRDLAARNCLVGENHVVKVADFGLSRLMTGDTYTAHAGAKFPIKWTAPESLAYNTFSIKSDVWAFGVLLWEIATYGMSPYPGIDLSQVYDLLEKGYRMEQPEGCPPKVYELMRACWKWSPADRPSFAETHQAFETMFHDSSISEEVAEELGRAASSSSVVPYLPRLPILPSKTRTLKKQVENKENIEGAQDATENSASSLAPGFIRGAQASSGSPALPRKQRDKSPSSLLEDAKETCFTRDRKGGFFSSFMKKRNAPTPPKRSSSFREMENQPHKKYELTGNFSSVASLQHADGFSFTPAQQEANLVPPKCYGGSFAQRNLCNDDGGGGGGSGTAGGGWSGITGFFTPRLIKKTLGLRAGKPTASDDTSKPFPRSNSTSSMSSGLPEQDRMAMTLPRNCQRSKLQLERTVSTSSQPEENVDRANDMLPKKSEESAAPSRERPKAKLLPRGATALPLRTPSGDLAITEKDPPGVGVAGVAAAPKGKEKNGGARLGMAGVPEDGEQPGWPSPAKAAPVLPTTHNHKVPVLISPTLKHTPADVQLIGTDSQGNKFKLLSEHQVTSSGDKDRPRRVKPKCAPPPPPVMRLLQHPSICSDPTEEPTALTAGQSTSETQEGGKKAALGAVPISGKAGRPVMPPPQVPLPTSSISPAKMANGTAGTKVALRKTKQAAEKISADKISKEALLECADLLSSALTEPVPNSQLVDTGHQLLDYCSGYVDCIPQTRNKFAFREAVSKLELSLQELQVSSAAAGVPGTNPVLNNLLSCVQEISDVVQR

[4] = target: protein kinases (human kinome) (Homo sapiens, UniProt P41240); conditions: for logFC of CSK: Accession P41240; for logFC CSK: CSK (P41240), down
protein kinases (human kinome) (Homo sapiens, UniProt P41240), sequence (P41240 whole entry): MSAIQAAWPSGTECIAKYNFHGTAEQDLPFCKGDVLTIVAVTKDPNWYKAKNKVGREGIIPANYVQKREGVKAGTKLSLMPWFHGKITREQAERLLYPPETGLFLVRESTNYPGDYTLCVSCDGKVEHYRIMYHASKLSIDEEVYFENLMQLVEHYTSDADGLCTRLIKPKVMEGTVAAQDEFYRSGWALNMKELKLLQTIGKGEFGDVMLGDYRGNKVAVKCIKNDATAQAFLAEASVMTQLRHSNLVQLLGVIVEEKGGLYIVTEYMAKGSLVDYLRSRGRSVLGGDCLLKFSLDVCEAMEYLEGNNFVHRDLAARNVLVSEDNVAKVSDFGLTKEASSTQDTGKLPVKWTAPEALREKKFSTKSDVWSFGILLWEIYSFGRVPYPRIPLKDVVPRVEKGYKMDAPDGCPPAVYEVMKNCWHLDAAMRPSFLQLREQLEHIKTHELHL

[5] = target: T1, protein kinases (human kinome) (Homo sapiens, UniProt Q12851); conditions: for logFC MAP4K2 (Q12851): direction down; for logFC: MAP4K2 (Q12851)
T1 sequence (Q12851 1-820): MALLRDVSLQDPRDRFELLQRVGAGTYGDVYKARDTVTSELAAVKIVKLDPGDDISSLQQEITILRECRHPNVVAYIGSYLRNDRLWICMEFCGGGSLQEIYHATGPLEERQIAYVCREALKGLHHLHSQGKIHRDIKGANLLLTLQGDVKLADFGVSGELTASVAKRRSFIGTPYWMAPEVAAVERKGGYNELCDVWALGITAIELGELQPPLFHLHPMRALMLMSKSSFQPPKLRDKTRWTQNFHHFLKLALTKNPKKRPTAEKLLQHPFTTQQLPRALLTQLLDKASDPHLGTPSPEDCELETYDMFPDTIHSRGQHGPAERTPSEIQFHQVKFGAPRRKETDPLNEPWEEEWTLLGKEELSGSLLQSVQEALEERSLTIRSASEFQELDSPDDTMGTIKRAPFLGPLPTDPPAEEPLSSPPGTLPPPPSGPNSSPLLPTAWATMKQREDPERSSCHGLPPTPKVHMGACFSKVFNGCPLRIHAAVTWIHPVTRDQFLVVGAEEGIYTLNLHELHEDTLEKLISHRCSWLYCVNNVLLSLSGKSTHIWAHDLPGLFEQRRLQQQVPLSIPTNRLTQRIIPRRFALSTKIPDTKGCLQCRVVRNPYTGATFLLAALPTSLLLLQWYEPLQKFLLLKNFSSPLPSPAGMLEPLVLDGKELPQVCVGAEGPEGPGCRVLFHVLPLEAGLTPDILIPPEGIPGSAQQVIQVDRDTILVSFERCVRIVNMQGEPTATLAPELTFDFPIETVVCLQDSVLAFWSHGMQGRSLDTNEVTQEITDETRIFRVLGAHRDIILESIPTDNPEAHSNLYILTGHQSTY

[6] = target: protein kinases (human kinome) (Homo sapiens, UniProt P24941)
[7] = target: T2, protein kinases (human kinome) (Homo sapiens, UniProt Q14CZ7); conditions: Accession Q14CZ7; experiment wp071; direction down
T2 sequence (Q14CZ7 1-662): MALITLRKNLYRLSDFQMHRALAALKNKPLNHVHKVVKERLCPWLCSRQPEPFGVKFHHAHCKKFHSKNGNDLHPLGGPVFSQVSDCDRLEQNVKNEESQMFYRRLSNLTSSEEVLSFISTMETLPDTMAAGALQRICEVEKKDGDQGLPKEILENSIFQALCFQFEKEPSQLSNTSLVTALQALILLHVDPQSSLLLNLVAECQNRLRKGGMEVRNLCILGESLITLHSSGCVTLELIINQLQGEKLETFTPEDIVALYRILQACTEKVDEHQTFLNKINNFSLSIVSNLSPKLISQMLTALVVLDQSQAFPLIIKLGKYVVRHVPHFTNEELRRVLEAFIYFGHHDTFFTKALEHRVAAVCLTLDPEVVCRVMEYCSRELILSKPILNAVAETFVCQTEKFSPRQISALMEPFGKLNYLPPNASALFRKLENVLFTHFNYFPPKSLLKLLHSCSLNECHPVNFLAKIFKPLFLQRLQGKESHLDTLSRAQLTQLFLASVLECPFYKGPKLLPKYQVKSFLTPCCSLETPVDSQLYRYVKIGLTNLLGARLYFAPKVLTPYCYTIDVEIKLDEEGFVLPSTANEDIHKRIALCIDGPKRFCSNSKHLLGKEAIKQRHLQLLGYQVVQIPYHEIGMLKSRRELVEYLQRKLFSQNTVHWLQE

[8] = target: protein kinases (human kinome) (Homo sapiens, UniProt Q15118); conditions: PDK1 Q15118
protein kinases (human kinome) (Homo sapiens, UniProt Q15118), sequence (Q15118 29-436): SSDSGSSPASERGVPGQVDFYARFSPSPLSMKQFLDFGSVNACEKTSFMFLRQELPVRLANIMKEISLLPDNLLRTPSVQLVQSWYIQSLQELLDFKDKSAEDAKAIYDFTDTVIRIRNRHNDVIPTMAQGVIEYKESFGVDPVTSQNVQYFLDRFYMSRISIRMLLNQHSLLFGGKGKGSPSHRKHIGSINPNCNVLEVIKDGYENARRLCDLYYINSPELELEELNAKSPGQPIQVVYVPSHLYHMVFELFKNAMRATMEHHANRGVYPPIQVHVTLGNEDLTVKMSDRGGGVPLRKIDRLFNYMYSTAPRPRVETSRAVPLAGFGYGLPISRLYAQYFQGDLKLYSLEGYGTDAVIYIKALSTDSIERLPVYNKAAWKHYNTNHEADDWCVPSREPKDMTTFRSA

[9] = MAPK14 (Q16539), experiment wp168

Cc1ccc(NC(=O)c2cccc(C(F)(F)F)c2)cc1N1Cc2cnc(Nc3ccc(N4CCN(CCCOc5cccc6c5C(=O)N(C5CCC(=O)NC5=O)C6=O)CC4)nc3)nc2N(C)C1=O (stereo not drawn) [DB0662]
logFC TNK2 (Q07912-1) ([1]; Experiment wp168): −0.6943
logFC TNK2 ([1]; experiment wp168): −0.6943
logFC [2, 9]: −1.002
logFC MAPK14 ([2]; experiment wp166): −1.002
logFC [3]: −1.207
logFC ABL2 (P42684) ([3]; Experiment wp168): −1.207
logFC of CSK ([4]; experiment wp168): −1.833
logFC CSK ([4]; experiment wp168): −1.833

Cc1ccc(NC(=O)c2cccc(C(F)(F)F)c2)cc1N1Cc2cnc(Nc3ccc(N4CCN(CCCCC(=O)N[C@H](C(=O)N5C[C@H](O)C[C@H]5C(=O)N[C@@H](C)c5ccc(-c6scnc6C)cc5)C(C)(C)C)CC4)nc3)nc2N(C)C1=O [DB1113]
logFC TNK2 (Q07912-1) ([1]; Experiment wp168): −0.5351
logFC TNK2 ([1]; experiment wp168): −0.5351
logFC of MAPK14 ([2]; experiment wp168): −1.73
logFC [2, 9]: −1.73
logFC MAP4K2 (Q12851) ([5]; Experiment wp168): −2.432
logFC ([5]; experiment wp168): −2.432
logFC [3]: −1.723
logFC ABL2 (P42684) ([3]; Experiment wp168): −1.723
logFC of CSK ([4]; experiment wp168): −1.62
logFC CSK ([4]; experiment wp168): −1.62

Cc1ncsc1-c1ccc([C@H](C)NC(=O)[C@@H]2C[C@@H](O)CN2C(=O)[C@@H](NC(=O)CCOCCOCCN2CCN(c3ccc(Nc4ncc(Cl)c(Nc5ccccc5S(=O)(=O)C(C)C)n4)cc3)CC2)C(C)(C)C)cc1 [FMF.06.098.1]
logFC TNK2 (Q07912-1) ([1]; Experiment wp108): −0.5108
logFC TNK2 (Q07912-1) ([1]; Experiment wp131): −0.5805
logFC TNK2 ([1]; experiment wp108): −0.5108
logFC TNK2 ([1]; experiment wp131): −0.5805
logFC MAP4K2 (Q12851) ([5]; Experiment wp108): −0.5507
logFC MAP4K2 (Q12851) ([5]; Experiment wp131): −0.6092
logFC ([5]; experiment wp108): −0.5507
logFC ([5]; experiment wp131): −0.6092
logFC CDK2 (P24941-1) ([6]; Experiment wp108): −0.6501
logFC CDK2 (P24941-1) ([6]; experiment wp108, direction of change down): −0.6501
logFC CDK2 (P24941-1) ([6]; experiment wp131): −0.8725
logFC CDK2 (P24941-1) ([6]; experiment wp131, direction of change down): −0.8725

Cc1cnc(Nc2ccc(N3CCN(CCOCCOCCNC(=O)COc4cccc5c4C(=O)N(C4CCC(=O)NC4=O)C5=O)CC3)cc2)nc1Nc1cccc(S(=O)(=O)NC(C)(C)C)c1 (stereo not drawn) [JWG.118]
logFC FASTKD3 [7]: −0.4386

Cc1ccc(C(=O)Nc2ccc(CN3CCN(CCCOCCOCCOCCNC(=O)COc4cccc5c4C(=O)N(C4CCC(=O)NC4=O)C5=O)CC3)c(C(F)(F)F)c2)cc1C#Cc1cnc2cccnn12 (stereo not drawn) [SB1.G.187]
logFC of MAPK14 ([2]; experiment wp172): −0.5198
logFC ([2]; MAPK14 (Q16539), experiment wp103): −0.83
logFC ([2]; MAPK14 (Q16539), experiment wp107): −0.924
logFC ([2]; MAPK14 (Q16539), experiment wp172): −0.5198
logFC MAPK14 ([2]; experiment wp103): −0.83
logFC MAPK14 ([2]; experiment wp107): −0.924
logFC MAP4K2 (Q12851) ([5]; Experiment wp056): −1.847
logFC MAP4K2 (Q12851) ([5]; Experiment wp103): −1.79
logFC MAP4K2 (Q12851) ([5]; Experiment wp105): −1.757
logFC MAP4K2 (Q12851) ([5]; Experiment wp107): −2.048
logFC MAP4K2 (Q12851) ([5]; Experiment wp114): −0.7516
logFC ([5]; experiment wp056): −1.847
logFC ([5]; experiment wp103): −1.79
logFC ([5]; experiment wp105): −1.757
logFC ([5]; experiment wp107): −2.048
logFC ([5]; experiment wp114): −0.7516
logFC [3]: −0.6252 and −0.6455
logFC ABL2 (P42684) ([3]; Experiment wp107): −0.6455
logFC ABL2 (P42684) ([3]; experiment wp056): −0.6252
logFC ([8]; experiment wp056): −0.4134
logFC PDK1 ([8]; experiment wp056): −0.4134

Cn1c(=O)c(-c2c(Cl)cccc2Cl)cc2cnc(Nc3ccc(OCCNC(=O)CCCCCCNC(=O)COc4cccc5c4C(=O)N(C4CCC(=O)NC4=O)C5=O)cc3)nc21 (stereo not drawn) [SB1.G.192.1]
logFC TNK2 (Q07912-1) ([1]; Experiment wp131): −1.488
logFC TNK2 ([1]; experiment wp131): −1.488
logFC ([2]; MAPK14 (Q16539) protein abundance, degrader vs DMSO, down): −0.8915 and −0.7293
logFC ([2]; MAPK14 (Q16539), experiment wp131): −0.7463
logFC MAPK14 ([2]; experiment wp071): −0.8915
logFC MAPK14 ([2]; experiment wp081): −0.7293
logFC MAPK14 ([2]; experiment wp131): −0.7463
logFC [3]: −2.44
logFC ABL2 (P42684) ([3]; experiment wp071): −2.44
logFC ([8]; experiment wp081): −0.3388
logFC PDK1 ([8]; experiment wp081): −0.3388
logFC of CSK ([4]; experiment wp071): −2.271
logFC of CSK ([4]; experiment wp081): −1.966
logFC of CSK ([4]; experiment wp131): −1.816
logFC CSK ([4]; experiment wp071): −2.271
logFC CSK ([4]; experiment wp081): −1.966
logFC CSK ([4]; experiment wp131): −1.816

CC(C)S(=O)(=O)c1ccccc1Nc1nc(Nc2ccc(N3CCN(CCOCCOCCC(=O)NCCNc4cccc5c4CN(C4CCC(=O)NC4=O)C5=O)CC3)cc2)ncc1Cl (stereo not drawn) [TL13.97]
logFC TNK2 (Q07912-1) ([1]; Experiment wp137): −1.971
logFC TNK2 ([1]; experiment wp137): −1.971
logFC [3]: −0.5116
logFC ABL2 (P42684) ([3]; experiment wp137): −0.5116
logFC CDK2 (P24941-1) ([6]; experiment wp137): −0.7834
logFC CDK2 (P24941-1) ([6]; experiment wp137, direction of change down): −0.7834
